Activity calls are given as the source filed them. The rule behind the calls is not given here.

The source of these data is ChEMBL document CHEMBL3864184, “Optimization of Highly Kinase Selective Bis-anilino Pyrimidine PAK1 Inhibitors” (ACS Med Chem Lett, 2016).

Series [1] has as its target T1, Proto-oncogene tyrosine-protein kinase Src (Homo sapiens, UniProt P12931). The experiment in a line: Inhibition of N-terminal His6-tagged recombinant human Src (1 to 530 residues) expressed in baculovirus infected sf21 cells.
Series [2] in a line: Intrinsic clearance in rat hepatocytes assessed per million cells. Format: ADME, cell-based, Hepatocyte. Particulars: read-out: CLH.
Series [3] addresses T2, Serine/threonine-protein kinase PAK 2 (Homo sapiens, UniProt Q13177).
Description: Inhibition of N-terminal 6His-tagged recombinant human PAK2 (3-end residues) expressed in Escherichia coli
Series [4] has as its target T3, Tyrosine-protein kinase Fyn (Homo sapiens, UniProt P06241). Nature of the series: Inhibition of N-Terminal His6-tagged full length recombinant human FYN expressed in baculovirus expression system.
Target sequence in this assay (P06241 whole entry): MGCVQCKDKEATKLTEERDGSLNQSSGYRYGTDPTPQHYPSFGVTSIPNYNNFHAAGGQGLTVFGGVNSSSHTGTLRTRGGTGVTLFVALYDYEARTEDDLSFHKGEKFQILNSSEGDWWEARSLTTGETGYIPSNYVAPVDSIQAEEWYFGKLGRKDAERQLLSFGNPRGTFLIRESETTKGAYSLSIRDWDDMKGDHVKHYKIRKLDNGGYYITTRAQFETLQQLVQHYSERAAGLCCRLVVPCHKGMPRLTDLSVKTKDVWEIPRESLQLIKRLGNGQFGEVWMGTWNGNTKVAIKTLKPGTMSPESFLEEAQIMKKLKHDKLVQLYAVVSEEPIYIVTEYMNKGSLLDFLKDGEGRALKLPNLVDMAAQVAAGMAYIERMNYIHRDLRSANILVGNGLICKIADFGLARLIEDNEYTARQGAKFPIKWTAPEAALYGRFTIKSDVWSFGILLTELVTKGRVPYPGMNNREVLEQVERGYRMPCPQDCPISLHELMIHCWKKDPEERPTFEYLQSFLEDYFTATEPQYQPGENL
In series [5] the target is 5-hydroxytryptamine receptor 2B (Homo sapiens) (UniProt P41595). Nature of the series: Activity at 5HT2B receptor (unknown origin) at <1 uM.
5-hydroxytryptamine receptor 2B (Homo sapiens), sequence (P41595 whole entry): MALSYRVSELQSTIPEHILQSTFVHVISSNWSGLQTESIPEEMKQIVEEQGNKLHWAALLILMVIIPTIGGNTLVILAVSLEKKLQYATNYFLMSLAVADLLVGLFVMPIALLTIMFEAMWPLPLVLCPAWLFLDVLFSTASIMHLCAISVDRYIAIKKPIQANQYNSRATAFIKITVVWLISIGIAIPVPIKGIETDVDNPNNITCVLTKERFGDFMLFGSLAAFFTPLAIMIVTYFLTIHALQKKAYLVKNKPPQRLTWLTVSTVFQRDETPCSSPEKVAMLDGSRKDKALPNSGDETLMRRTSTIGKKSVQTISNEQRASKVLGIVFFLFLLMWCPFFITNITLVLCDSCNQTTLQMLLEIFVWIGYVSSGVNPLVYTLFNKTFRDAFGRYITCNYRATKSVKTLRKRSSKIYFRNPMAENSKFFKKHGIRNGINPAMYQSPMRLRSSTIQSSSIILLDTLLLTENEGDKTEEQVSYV
Series [6] concerns the target T2, Serine/threonine-protein kinase PAK 2. The source holds these as a separate data set.
Description: Binding affinity to human PAK2 (P151 to R525 residues) expressed in bacterial expression system by KINOMEscan assay
In series [7] the target is Sodium-dependent dopamine transporter (Homo sapiens) (UniProt Q01959). Nature of the series: Activity at dopamine transporter (unknown origin) at <1 uM.
Sodium-dependent dopamine transporter (Homo sapiens), sequence (Q01959 whole entry): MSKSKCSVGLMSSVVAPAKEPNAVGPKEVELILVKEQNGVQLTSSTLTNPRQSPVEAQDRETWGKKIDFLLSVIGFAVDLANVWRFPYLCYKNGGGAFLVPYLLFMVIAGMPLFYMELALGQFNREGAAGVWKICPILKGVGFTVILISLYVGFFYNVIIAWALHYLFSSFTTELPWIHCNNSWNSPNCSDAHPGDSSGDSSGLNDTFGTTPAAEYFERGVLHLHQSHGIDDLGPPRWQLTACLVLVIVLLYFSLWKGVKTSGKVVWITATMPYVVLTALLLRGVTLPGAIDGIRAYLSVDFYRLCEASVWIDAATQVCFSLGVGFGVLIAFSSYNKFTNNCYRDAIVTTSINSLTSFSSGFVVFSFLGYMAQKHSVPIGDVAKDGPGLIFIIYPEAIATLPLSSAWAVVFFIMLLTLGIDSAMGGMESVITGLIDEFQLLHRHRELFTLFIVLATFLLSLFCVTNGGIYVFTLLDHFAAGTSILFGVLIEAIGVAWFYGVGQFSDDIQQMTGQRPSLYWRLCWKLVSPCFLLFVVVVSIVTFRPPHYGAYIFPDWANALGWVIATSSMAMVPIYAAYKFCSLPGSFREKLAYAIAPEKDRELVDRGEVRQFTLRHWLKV
The nature of series [8]: Distribution coefficient, logD of the compound. Format: physicochemical. Particulars: octanol/water.
For series [9], the target named is T4, 5-hydroxytryptamine receptor 2C (Homo sapiens) (UniProt P28335).
T4 sequence (whole entry): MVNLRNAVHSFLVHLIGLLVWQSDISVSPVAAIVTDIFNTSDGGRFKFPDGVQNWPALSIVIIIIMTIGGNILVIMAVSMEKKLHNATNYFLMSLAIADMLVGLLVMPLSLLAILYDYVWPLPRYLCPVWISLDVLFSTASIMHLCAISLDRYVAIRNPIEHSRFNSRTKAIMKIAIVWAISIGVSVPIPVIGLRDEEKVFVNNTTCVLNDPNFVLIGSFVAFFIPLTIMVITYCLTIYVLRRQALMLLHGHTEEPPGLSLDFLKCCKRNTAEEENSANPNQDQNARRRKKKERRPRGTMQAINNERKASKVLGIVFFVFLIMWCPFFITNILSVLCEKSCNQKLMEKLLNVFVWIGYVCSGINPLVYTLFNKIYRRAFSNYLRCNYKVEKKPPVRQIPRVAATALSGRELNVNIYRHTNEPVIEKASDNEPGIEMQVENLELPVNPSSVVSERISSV
Nature of the series: Activity at 5HT2C receptor (unknown origin) at <1 uM.

The target of series [10] is T5, Alpha-2C adrenergic receptor (Homo sapiens) (UniProt P18825).
T5 sequence (whole entry): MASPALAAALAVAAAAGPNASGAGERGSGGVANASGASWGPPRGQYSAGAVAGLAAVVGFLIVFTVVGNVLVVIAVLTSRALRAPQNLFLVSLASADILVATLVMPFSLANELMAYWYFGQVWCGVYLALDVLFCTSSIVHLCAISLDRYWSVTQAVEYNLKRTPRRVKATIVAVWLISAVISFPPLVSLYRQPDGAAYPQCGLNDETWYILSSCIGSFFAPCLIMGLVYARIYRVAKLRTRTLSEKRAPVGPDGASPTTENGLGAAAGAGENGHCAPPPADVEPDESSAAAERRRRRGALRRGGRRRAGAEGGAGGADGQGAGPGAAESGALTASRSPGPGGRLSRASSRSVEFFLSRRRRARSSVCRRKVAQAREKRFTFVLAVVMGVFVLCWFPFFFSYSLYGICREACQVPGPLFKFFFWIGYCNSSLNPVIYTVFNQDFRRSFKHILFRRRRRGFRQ
The experiment in a line: Activity at alpha-2C adrenergic receptor (unknown origin) at <1 uM.

The target in series [11] is T3, Tyrosine-protein kinase Fyn. Nature of the series: Inhibition of N-Terminal His6-tagged full length recombinant human FYN expressed in baculovirus expression system at 100 nM.
Target sequence in this assay (P06241 2-537 limits assumed): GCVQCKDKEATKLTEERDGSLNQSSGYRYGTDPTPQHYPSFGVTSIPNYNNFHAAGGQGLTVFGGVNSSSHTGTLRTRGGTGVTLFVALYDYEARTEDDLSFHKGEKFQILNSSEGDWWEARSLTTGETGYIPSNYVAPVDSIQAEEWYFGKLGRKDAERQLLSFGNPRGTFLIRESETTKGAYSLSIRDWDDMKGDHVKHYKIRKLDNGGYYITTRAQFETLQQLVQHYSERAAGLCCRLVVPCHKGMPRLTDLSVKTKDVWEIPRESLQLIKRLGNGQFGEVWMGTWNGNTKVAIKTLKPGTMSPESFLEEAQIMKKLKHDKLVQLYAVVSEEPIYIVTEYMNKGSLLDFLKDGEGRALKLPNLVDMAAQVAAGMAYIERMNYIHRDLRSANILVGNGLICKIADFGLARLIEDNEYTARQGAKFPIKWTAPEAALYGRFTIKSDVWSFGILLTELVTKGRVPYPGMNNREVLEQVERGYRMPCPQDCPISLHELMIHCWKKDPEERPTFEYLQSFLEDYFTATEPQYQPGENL
Series [12] has as its target Tyrosine-protein kinase Yes (Homo sapiens, UniProt P07947). The experiment in a line: Inhibition of N-terminal 6His-tagged full length recombinant human YES expressed in baculovirus expression system.
The target of series [13] is T6, Muscarinic acetylcholine receptor M1 (Homo sapiens) (UniProt P11229).
T6 sequence (whole entry): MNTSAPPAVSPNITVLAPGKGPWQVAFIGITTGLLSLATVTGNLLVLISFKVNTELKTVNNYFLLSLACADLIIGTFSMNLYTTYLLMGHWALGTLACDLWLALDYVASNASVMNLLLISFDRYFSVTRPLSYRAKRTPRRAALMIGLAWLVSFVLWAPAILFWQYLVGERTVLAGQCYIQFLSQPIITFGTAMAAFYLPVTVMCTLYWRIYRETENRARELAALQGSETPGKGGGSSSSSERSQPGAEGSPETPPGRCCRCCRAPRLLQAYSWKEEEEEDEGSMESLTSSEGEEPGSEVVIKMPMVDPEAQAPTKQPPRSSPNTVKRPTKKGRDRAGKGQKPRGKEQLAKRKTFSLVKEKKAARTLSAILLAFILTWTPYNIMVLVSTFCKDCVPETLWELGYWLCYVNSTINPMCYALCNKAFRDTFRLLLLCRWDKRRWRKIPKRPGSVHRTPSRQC
Nature of the series: Activity at muscarinic acetylcholine receptor M1 (unknown origin) at <1 uM.

For series [14], the target named is T7, Muscarinic acetylcholine receptor M2 (Homo sapiens) (UniProt P08172).
T7 sequence (whole entry): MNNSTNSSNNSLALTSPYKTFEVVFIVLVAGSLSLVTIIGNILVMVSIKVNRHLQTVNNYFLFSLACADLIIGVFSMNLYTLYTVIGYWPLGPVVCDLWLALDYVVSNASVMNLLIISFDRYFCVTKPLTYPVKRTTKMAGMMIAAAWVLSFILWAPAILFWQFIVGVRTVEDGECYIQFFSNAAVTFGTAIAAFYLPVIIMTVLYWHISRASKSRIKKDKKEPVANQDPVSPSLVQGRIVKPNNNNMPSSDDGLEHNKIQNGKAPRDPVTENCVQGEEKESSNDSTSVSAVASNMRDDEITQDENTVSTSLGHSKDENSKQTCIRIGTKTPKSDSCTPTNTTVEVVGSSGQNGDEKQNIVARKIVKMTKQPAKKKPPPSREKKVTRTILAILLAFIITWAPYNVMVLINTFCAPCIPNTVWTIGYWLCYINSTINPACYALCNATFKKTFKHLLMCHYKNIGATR
Nature of the series: Activity at muscarinic acetylcholine receptor M2 (unknown origin) at <1 uM.

In series [15] the target is PAK2 (serine/threonine-protein kinase PAK 2) (Homo sapiens, UniProt Q13177). The experiment in a line: Inhibition of N-terminal 6His-tagged recombinant human PAK2 (3-end residues) expressed in expressed in Escherichia coli at 100 nM.
PAK2 (serine/threonine-protein kinase PAK 2), sequence (Q13177 whole entry): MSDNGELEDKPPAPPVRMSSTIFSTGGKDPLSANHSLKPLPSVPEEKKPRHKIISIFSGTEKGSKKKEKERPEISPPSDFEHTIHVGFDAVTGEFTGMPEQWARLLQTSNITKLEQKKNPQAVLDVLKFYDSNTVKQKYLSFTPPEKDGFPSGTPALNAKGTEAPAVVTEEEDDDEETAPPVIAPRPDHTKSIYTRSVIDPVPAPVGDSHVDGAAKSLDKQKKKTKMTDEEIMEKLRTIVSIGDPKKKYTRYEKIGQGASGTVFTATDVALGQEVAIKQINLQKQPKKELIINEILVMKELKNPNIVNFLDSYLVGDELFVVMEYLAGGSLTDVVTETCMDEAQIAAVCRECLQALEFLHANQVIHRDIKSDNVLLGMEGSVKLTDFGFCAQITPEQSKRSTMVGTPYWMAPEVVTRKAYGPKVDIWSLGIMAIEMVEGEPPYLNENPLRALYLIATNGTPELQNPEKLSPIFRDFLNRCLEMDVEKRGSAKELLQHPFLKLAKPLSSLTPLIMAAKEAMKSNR
Series [16] has as its target Tyrosine-protein kinase Lyn (Homo sapiens, UniProt P07948). Nature of the series: Inhibition of N-terminal his6-tagged recombinant full-length human LYN expressed in baculovirus infected Sf21 cells.
Series [17] addresses D(3) dopamine receptor (Homo sapiens) (UniProt P35462). Nature of the series: Activity at dopamine receptor D3 (unknown origin) at <1 uM.
The target in series [18] is T1, Proto-oncogene tyrosine-protein kinase Src. Nature of the series: Inhibition of N-terminal His6-tagged recombinant human Src (1 to 530 residues) expressed in baculovirus infected sf21 cells at 100 nM.
The species entered for series [19] is Homo sapiens. The experiment in a line: Activity at CaV-L (unknown origin) at <1 uM.

T1 sequence (P12931 2-536 limits assumed): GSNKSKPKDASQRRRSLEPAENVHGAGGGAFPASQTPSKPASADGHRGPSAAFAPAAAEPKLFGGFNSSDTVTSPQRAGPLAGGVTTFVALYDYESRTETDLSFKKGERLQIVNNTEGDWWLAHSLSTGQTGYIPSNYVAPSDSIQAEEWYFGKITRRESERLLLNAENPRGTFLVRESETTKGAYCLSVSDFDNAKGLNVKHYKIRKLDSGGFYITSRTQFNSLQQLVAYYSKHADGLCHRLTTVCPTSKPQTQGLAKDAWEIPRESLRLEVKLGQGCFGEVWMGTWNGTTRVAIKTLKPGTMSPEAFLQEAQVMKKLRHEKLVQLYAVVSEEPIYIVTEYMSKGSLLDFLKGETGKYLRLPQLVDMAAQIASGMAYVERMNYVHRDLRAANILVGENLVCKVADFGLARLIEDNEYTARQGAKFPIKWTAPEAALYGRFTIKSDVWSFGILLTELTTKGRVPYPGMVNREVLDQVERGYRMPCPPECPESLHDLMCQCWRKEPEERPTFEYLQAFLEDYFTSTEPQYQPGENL
T2 sequence (Q13177 whole entry): as the sequence (Q13177 whole entry) above
Tyrosine-protein kinase Yes, sequence (P07947 whole entry): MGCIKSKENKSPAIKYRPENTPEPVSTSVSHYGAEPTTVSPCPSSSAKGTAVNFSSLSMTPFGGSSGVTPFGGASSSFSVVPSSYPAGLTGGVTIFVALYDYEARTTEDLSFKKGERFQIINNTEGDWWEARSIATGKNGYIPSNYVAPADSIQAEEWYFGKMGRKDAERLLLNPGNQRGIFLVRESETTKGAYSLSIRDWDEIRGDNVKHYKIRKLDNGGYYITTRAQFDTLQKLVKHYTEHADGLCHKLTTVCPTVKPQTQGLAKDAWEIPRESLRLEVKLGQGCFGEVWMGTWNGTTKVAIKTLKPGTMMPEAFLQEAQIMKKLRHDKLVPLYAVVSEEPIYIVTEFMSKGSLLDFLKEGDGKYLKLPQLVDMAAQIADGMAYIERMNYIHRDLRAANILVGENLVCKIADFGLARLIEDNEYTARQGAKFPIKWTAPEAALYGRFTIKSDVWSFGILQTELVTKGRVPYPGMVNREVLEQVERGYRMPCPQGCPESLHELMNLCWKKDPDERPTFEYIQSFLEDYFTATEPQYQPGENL
D(3) dopamine receptor (Homo sapiens), sequence (P35462 whole entry, the tested form may be a part): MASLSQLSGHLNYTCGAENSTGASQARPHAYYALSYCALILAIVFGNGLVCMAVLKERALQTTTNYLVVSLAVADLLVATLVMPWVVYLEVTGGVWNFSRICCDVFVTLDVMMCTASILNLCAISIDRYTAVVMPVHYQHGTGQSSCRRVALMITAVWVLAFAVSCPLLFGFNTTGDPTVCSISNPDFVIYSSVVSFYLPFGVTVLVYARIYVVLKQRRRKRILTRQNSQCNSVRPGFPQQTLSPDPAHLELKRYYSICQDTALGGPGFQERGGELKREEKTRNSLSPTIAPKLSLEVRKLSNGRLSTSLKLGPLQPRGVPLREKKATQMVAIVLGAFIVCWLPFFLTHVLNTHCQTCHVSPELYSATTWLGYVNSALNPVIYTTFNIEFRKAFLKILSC
Tyrosine-protein kinase Lyn, sequence (P07948 whole entry): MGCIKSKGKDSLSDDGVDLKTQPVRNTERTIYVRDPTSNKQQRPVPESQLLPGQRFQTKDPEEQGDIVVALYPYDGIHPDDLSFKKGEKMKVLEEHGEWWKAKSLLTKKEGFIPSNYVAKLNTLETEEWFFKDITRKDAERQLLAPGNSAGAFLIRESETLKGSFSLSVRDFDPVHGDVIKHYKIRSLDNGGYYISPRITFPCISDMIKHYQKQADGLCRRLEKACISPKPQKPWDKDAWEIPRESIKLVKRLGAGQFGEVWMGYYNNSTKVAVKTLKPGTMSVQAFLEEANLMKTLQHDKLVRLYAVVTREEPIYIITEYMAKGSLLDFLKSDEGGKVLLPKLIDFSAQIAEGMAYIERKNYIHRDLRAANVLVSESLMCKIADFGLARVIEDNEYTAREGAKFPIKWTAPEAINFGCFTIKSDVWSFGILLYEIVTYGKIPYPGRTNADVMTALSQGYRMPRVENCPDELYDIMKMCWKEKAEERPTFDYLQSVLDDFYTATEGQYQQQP

One may read the IC50 as the concentration that gives 50% inhibition. Broadly, the Kd is the equilibrium constant for the complex coming apart. Lower therefore signals tighter binding. The term logD denotes lipophilicity at a set pH, counting ionised and neutral species. A low value points to a more hydrophilic compound. Usually inhibition stands for how much of the control response was suppressed. On to `CCS(=O)(=O)c1cc(Nc2ncc(F)c(N(Cc3ccccc3C#N)c3cc(CO)ccc3C)n2)ccc1N1CCN(C)CC1`, for which the IC50 was 93 nM in series [1]; 6 nM in [3]; 45 nM in series [4]; 4 nM in [12]; 31 nM in [16]. Moreover, the hepatocyte CLint in series [2] stood at 30 µL/min/1e6 cells. Also, the result in series [5], in series [7], in [9], in [10], in series [13] and in series [14] was Active. Also, the outcome in [17] and in [19] was Active. The same compound gave a Kd in [6] of 0.32 nM. This compound also showed a logD in series [8] of 3.7. In addition, the inhibition in series [11] is 87%; in series [18], 86%. In [15], the inhibition at 0.1 µM worked out at 98%.
